Measured values: US6169104A, “Di-aryl ethers and their derivatives as anti-cancer agents” (Large Scale Biology Corporation, priority 1998, dated 2001)
Like-named read-outs stand apart in the source and are kept apart here.

Columns and labels:
[1] = system: A549 (non-small cell lung); experiment: In vitro cytotoxicity screen, alamar Blue assay; assay type: cell-based; details: Homo sapiens
Experimental: (§1) Human tumor cell lines were exposed continuously to varying concentrations of test agents, i.e., BTO-956, BTO-964, BTO966 and BTO-967) and the viability of the cells was measured at set time points (1, 3, and 7 days) using the alamar Blue™ assay. […] This fluorescence can be measured with a fluorimeter, whereby the signal is directly proportional to cell number.
(§2) Various tumor cell lines of human origin representing a wide diversity of cancer pheno- and genotypes were exposed in vitro to the agents to evaluate the drug's effective range. Tumor lines screened included MDA MB 231 (breast), MCF-7 (breast), MDA MB 468 (breast), Siha (squamous cell carcinoma), A549 (non-small cell lung), HL-60 (leukemia), Ovcar-3 (ovarian). The test agents were prepared in serial dilutions from 10 mM stock solutions in DMSO yielding a 66-fold dose range of 20 μM, 10 μM, 3 μM, 1 μM and 0.3 μM concentrations. In each case, cells were maintained at 37° C. under 5 percent CO2 in air. All cell lines were incubated in Dulbecco's modified Eagle medium (DMEM) supplemented with 10% heat-inactivated fetal bovine serum and graded doses of BTO-956, 964, 966, or 967. 5-Fluorouracil (5-FU) was included as a positive control in experiments with two of the cell lines. The experiments were conducted in 96-well tissue culture plates (Falcon) with an initial seeding density of 1000 cells per well in 250 μl aliquots. The next day, medium was replaced with 100 μl of drug dilutions in triplicate.
(§3) After a 7 day exposure to the various agents, the alamarBlue dye was diluted to 20% in DMEM, and 100 μl was added to each well. The cells were incubated for 8 hours until obvious color changes indicated sufficient amounts of reduced dye for quantitation. Relative cell number was evaluated by florimetry on a Millipore 2300 CytoFluor fluorescence measurement system. Measurements were taken directly from 96-well plates after excitation at 560 nm with concomitant emission at 590 nm.

Ovcar-3 (ovarian) = experiment: In vitro cytotoxicity screen, alamar Blue assay; assay type: cell-based; details: Homo sapiens, 168 h, 7 days post exposure
Experimental: as §1, §2, §3

[2] = system: Siha (squamous cell carcinoma); experiment: In vitro cytotoxicity screen, alamar Blue assay; assay type: cell-based; details: Homo sapiens, 168 h, 7 days post exposure
Experimental: as §1, §2, §3

MDA MB 468 (breast) = experiment: In vitro cytotoxicity screen, alamar Blue assay; assay type: cell-based; details: Homo sapiens, 168 h, 7 days post exposure
Experimental: as §1, §2, §3

MCF-7 (breast) = experiment: In vitro cytotoxicity screen, alamar Blue assay; assay type: cell-based; details: Homo sapiens, MCF7, 168 h, 7 days post exposure
Experimental: as §1, §2, §3

MDA MB 231 (breast) = experiment: In vitro cytotoxicity screen, alamar Blue assay; assay type: cell-based; details: Homo sapiens
Experimental: as §1, §2, §3

[3] = system: Human leukemia (HL60) cells; experiment: In vitro metabolism in human leukemia cells with and without rat liver S9; assay type: cell-based; details: 4 hr incubation with vs without rat liver S9, cells counted 3 days later (FIG. 2)
Experimental: FIG. 2 illustrates the in vitro metabolism of BTO-956, 964, 966, and 967 in human leukemia cells. In this experiments, human leukemia cells (HL60) were incubated for 4 hours in the presence of BTO-956, BTO-964, BTO-966 or BTO-967, with (closed symbols) and without (open symbols) rat liver microsome fraction S9. Following the 4 hr exposure to drug and S9, the cells were rinsed and replated at a density of 2×10^5 cells per ml, and counted 3 days later.
To test for either of these possibilities, the compounds, i.e., BTO-956, BTO-964, BTO-966 and BTO-967, were incubated with a microsomal enzyme fraction, referred to as S9.
Human leukemia (HL60) cells were used to evaluate drug metabolism. Exposure to the test article was performed in the presence and absence of S9, prepared from the liver of adult male rats given a single intraperitoneal injection of Arachlor 1254 (500 mg/kg). The S9 consisted of the 9000×G supernatant of liver homogenized in 0.25 M sucrose-100 mM phosphate buffer (pH 7.4) (Molecular Toxicology, Inc.). Cofactors were 1 mM NADP and 5 mM sodium isocitrate. On the day of exposure, cultures of cells, with or without the metabolism mixture, were incubated for 4 hours in RPMI containing 5% FBS and graded doses of BTO956, 964, 966, or 967. The test agents were prepared in serial dilutions from 10 mM stock solutions in DMSO yielding a dose range 100 μM, 50 μM, 25 μM, 10 μM and 5 μM concentrations and a final DMSO concentration of 1%. In each case, cells were maintained at 37° C. under 5 percent CO2 in air. The experiments were conducted in 6-well tissue culture plates (Falcon) with an initial seeding density of 2×10^6 cells per well in 2 ml aliquots. The test compounds were added immediately to the medium in duplicate cultures. Treatment solution was removed by a series of low-speed centrifugations to pellet the cells, followed by removal of the supernatant and resuspension of cells in fresh RPMI containing 10% FBS.

[4] = system: angiogenesis induced by hFGF-B in the CAM; experiment: Chick chorioallantoic membrane (CAM) assay, 14C-proline incorporation into collagenous protein; assay type: in vivo, chick embryo
Experimental: BTO-964 [methyl 3,5-diiodo-4(4'-methoxyphenoxy) benzaldehyde], and BTO-967 [methyl 3,5-diiodo-4(4'-methoxyphenoxy)-thiobenzoate] were tested in the CAm assay. The endpoint of the CAM assay was a quantiative determination of basement membrane biosynthesis by measuring the incorporation of ^14 C-proline into Type IV collagenous protein.
The CAM assay involves the development of live chick embryos in Petri dishes under special sterile conditions. Therefore, only limited numbers of embryos can be used for evaluation of compounds in a single experiment. BTO-964 and BTO-967 was tested in separate assays. A known angiogenesis inhibitor, 2-methoxyestradiol (2-ME), was used as the positive control, and human fibroblast growth factor (hFGF) was used to induce angiogenesis in the CAM.
For testing, a minimum amount of acetone-methanol (1:1) was added to the test compounds for sterilization. The acetone-methanol mixture was then evaporated to dryness in a sterile hood. The compounds were dissolved in dimethyl sulfoxide (DMSO) first and then diluted with saline containing methylcellulose. The final concentrations were 2% DMSO and 0.5% methylcellulose. all test solutions were added to each CAM in […] aliquots.
Fresh fertile eggs were incubated for three days in a standard egg incubator. On Day 3, eggs were cracked under sterile conditions and embryos were placed in 20×100 mm plastic Petri dishes and cultivated at 37° C. in an embryo incubator with a water reservoir on the bottom shelf. Air was continuously bubbled into the water reservoir by using a small pump so that the humidity in the incubator was kept constant. Observations were made daily to ensure that all embryos were healthy. Dead or unhealthy embryos were removed from the incubator immediately to avoid contamination. On Day 9, a sterile silicone ring cup was placed on each CAM and 0.5 mCi of ^14 C-proline with or without the test compound plus 2.5 ng of hFGF dissolved in saline containing 0.5% methylcellulose was delivered into each ring cup in a sterile hood. 2-ME was tested in parallel to serve as a reference compound. After addition of test materials, the embryos were returned to the incubator and cultivation continued. On Day 12, all embryos were transferred to a cold room at 4-10° C.
Using the procedure outlined in Maragoudakis, et al., (1989) J. Pharm. Exp. Ther. 251:679-682, the embryos were placed on ice and a piece of CAM 10 mm in diameter was cut off under each ring cup and placed in a separate tube. To each tube was added 1.0 ml of phosphate-buffered saline (PBS, pH 7.3) containing 0.11 mg cycloheximide and 0.17 mg dipyridyl. The tubes were placed in a boiling water bath for 10 min and then cooled to room temperature. The PBS in each tube was discarded after centrifugation at 3000×G for 10 min. The CAM residue was washed once with 3 ml of 15% TCA and then three times with 3 ml of 5% TCA. Centrifugation was carried out as described above between each washing. At this point all non-protein bound radioactivity was removed, and the CAM containing the newly synthesized ^14 C-collagenous protein was suspended in 0.9 ml of 0.1 N NaOH and 1.1 ml of HEPES buffer at pH 7.4. The pH of the sample was neutralized with 0.8 N HCl, using phenol red as indicator.
To digest the ^14 C-collagenous protein, 7.5 units of collagenase and 500 nmol of calcium chloride in […] of HEPES buffer was added to the above samples, and mixtures were incubated at 37° C. for 4 h. The reaction was stopped by adding 1.0 ml of 20% TCA containing 5 mg of tannic acid into each tube. After vortex mixing, the samples were centrifuged at 3000×G for 10 min. An aliquot of the clear supernatant was taken for scintillation counting to quantitate the radiolabeled tripeptides corresponding to basement membrane collagen and other collagenous materials synthesized by the CAM from ^14 C-proline. The CAM pellets in each tube were solubilized in 0.5 ml of 1.0 N NaOH by boiling in a water bath for 5 min. […]

TNF-α mRNA [5] = details: 10 μM, without LPS
Experimental: (§4) The murine macrophage PU5-1.8 cell line are purchased from the American Type Culture Collection (ATCC, Rockville, Md.). Cells are grown in DMEM medium supplemented with 100 mM sodium pyruvate, 0.1 mM nonessential amino acids, 2 mM glutamine and 5 % fetal bovine serum (Life Technologies, Staten Island, N.Y.). Cells are maintained in a humidified atmosphere of 5% CO2 -95% air at 37° C. Cells are passaged twice weekly by firmly tapping the side of the flask to dislodge the adherent cells. Both nonadherent and adherent cells are passaged. Exponentially growing cells are seeded at 5×10^5 /mL, 4 mL per 60-mm dish 24 h prior to the experiment. Test compounds are delivered in 1 mL volumes of the medium added to each dish at the start of the experiment. All dishes are incubated at 37° C. in 5% CO2 -95% air for 3 h.
(§5) The Tumor Necrosis Factor (TNF-α) cDNA is obtained from the ATCC (Rockville, Md.). [α-^32 P]-dCTP (250 μCi) and nylon membranes (Hybond N) are obtained from Amersham (Arlington Heights, Ill.). […] Lipopolysaccharide (LPS) from Escherichia coli is purchased from DIFCO Laboratories (Detroit, Mich.). All plastic supplies are purchased from VWR Scientific products (San Francisco, Calif.). […]
(§6) Hybridized bands are quantified by analyzing the images obtained by using a video densitometer (Applied Imaging Corporation, Santa Clara, Calif.). […]

TNF-α mRNA [6] = experiment: cells; details: Mus musculus, Macrophage, 3 h, read-out: inhibition of TNF-α mRNA accumulation
Experimental: as §4, §5, §6

[7] = 168 h, A549, 7 days post exposure, read-out: IC50
[8] = 168 h, MDA MB 231, 7 days post exposure, read-out: IC50

COCc1cc(I)c(Oc2ccc(OC)cc2)c(I)c1 [BTO-966, 3,5-diiodo-4-(4'-methoxyphenoxy)benzyl methyl ether]
IC50 [1, 7]: > 30 µM | IC50 (Ovcar-3 (ovarian)): 6.9 µM | IC50 [2]: > 20000 nM | IC50 (MDA MB 468 (breast)): 7.5 µM | IC50 (MCF-7 (breast)): 7 µM | IC50 (MDA MB 231 (breast); [8]): 10 µM | effect of metabolism by S9 on activity [3]: activated to more cytotoxic products

COC(=O)c1cc(I)c(Oc2ccc(OC)cc2)c(I)c1 [BTO-956, methyl 3,5-diiodo-4-(4'-methoxyphenoxy)benzoate]
IC50 [1, 7]: 4 µM | IC50 (Ovcar-3 (ovarian)): < 0.3 µM | IC50 [2]: 500 nM | IC50 (MDA MB 468 (breast)): 0.5 µM | IC50 (MCF-7 (breast)): 5 µM | IC50 (MDA MB 231 (breast); [8]): 10 µM | effect of metabolism by S9 on activity [3]: metabolized within the 4-hr incubation period to an inactive form

COc1cc2c(cc1O)CC[C@@H]1[C@@H]2CC[C@]2(C)[C@@H](O)CC[C@@H]12 [2-Methoxyestradiol, 2-methoxyestradiol, reference compound]
% Inhibition ([4]; 8.3 μg/CAM, BTO-964 experiment): 6% | 14C-Proline Incorporated into Collagenous Protein (cpm/mg protein) (mean ± S.E.) ([4]; 8.3 μg/CAM, BTO-964 experiment, control 11200 ± 829): 10499 ± 1372 cpm/mg_protein | % Inhibition ([4]; 8.3 μg/CAM, BTO-967 experiment): 9% | 14C-Proline Incorporated into Collagenous Protein (cpm/mg protein) (mean ± S.E.) ([4]; 8.3 μg/CAM, BTO-967 experiment, control 6300 ± 696): 5711 ± 1469 cpm/mg_protein | % Inhibition ([4]; 25 μg/CAM, BTO-964 experiment): 35% | 14C-Proline Incorporated into Collagenous Protein (cpm/mg protein) (mean ± S.E.) ([4]; 25 μg/CAM, BTO-964 experiment, control 11200 ± 829): 7303 ± 1424 cpm/mg_protein | % Inhibition ([4]; 25 μg/CAM, BTO-967 experiment): 20% | 14C-Proline Incorporated into Collagenous Protein (cpm/mg protein) (mean ± S.E.) ([4]; 25 μg/CAM, BTO-967 experiment, control 6300 ± 696): 5068 ± 1609 cpm/mg_protein | % Inhibition ([4]; 75 μg/CAM, BTO-964 experiment): 38% | 14C-Proline Incorporated into Collagenous Protein (cpm/mg protein) (mean ± S.E.) ([4]; 75 μg/CAM, BTO-964 experiment, control 11200 ± 829): 6984 ± 1022 cpm/mg_protein | % Inhibition ([4]; 75 μg/CAM, BTO-967 experiment): 38% | 14C-Proline Incorporated into Collagenous Protein (cpm/mg protein) (mean ± S.E.) ([4]; 75 μg/CAM, BTO-967 experiment, control 6300 ± 696): 3875 ± 891 cpm/mg_protein

O=c1[nH]cc(F)c(=O)[nH]1 [5-FU, 5-Fluorouracil, reference compound]
IC50 ([1]; A549, 168 h): 5.5 µM | IC50 (MDA MB 231 (breast); MDA-MB-231, 168 h): 10 µM

COc1cc2c(c(OC)c1OC)-c1ccc(OC)c(=O)cc1[C@@H](NC(C)=O)CC2 [colchicine, Colchicine]
effect on TNF-α mRNA expression (TNF-α mRNA [5]): no effect | inhibition at 10 µM (TNF-α mRNA [6]): 68%
